# According to US5459236A, “Vasoactive vasotocin derivatives” (Ferring AB, priority 1990, dated 1995):
# Legend:
# [1] = system: anaesthetised Sprague Dawley rats, previously treated with dibenamine; assay: Blood pressure (pressor) test, 4-point test against standard AVP; format: in vivo
# Excerpt: (§1) Vasotocin derivatives according to the invention have been tested for potency of both blood pressure and antidiuretic activity in a so-called 4-point test, i.e. the activity of the test substances has been related to a standard preparation (AVP=argininevasopressin), and the effects of two dose levels for each substance have been analysed. In addition, three pressor-specific VT derivatives according to our previous application SE 8703855-0 have been tested for a comparison, namely 1-Hmp-2-Phe-S-Orn-VT (compound 2 in Table 1), 1-Hmp-2-Phe-S-Dab-VT (compound 3 in Table 1), and 1-Hmp-2-Phe-S-Dab(Ala)-VT (compound 5 in Table 1).
# Blood pressure tests were carried out on anaesthetised Sprague Dawley rats (about 250 g), previously treated with dibenamine (Dekanski, J., 1952. Br. J. Pharmacol. 7, 567). Maximal blood pressure increase after intravenous injections of peptide was used as a measure of the effect, expressed as intensity.
# In addition to potency determination based-on effect intensity, a measure of the length of the effect has been stated (index of persistence (I.P.), Pliska, V., 1966. Arzheim. Forech. 16, 886). This dimensionless factor is a measure of the effect duration of the respective analog in relation to the standard AVP.
# (§2) In these two tests, a comparison was made between the effects of the respective derivative and the effect of a standard preparation, AVP, and potency was determined with the aid of a 4-point test and is indicated in international units per micromole (IU/μmole) (Sturmer, E., in Handbook of Expermimental Pharmacology, 1966, Vol 23, pp 130-189).
# The specificity in respect of blood pressure is indicated by the ratio of potency blood pressure/potency antidiuresis (BP/AD).
# [2] = system: anaesthetised water-loaded Sprague Dawley rats; assay: Antidiuretic potency test, 4-point test against standard AVP; format: in vivo; settings: maximal increase of urine conductivity after intravenous injection, 4-point test vs AVP
# Excerpt: as §1
# Antidiuretic potency was determined with the aid of anaesthetised water-loaded Sprague Dawley rats (200 g) (Larsson, L. E., Lindeberg, G., Melin, P. and Pliska, V., 1978, J. Mad. Chem. 21, 353). Maximal increase of urine conductivity after intravenous injections was used as effect parameter.
# as §2
smiles,measurement,setting,value
"NC(=O)CC[C@@H]1NC(=O)[C@H](Cc2ccccc2)NC(=O)[C@H](Cc2ccc(O)cc2)NC(=O)[C@@H](N)CSSC[C@@H](C(=O)N2CCC[C@H]2C(=O)N[C@@H](CCCN=C(N)N)C(=O)NCC(N)=O)NC(=O)[C@H](CC(N)=O)NC1=O [AVP, argininevasopressin]","BLOOD PRESSURE BP I.P (measure of duration of effect), index of persistence","[1]; dimensionless, effect duration in relation to the standard AVP, intravenous",1.0
same,BLOOD PRESSURE BP potency,"[1]; maximal blood pressure increase after intravenous injection, 4-point test vs AVP, anaesthetised rats",614 ± 25 IU/μmole
same,BP/AD (measure of specificity),[1]; ratio of potency blood pressure/potency antidiuresis,1.0
same,ANTIDIURESIS AD potency,[2],620 ± 54 IU/μmole
